ChEMBL document CHEMBL1143256, “Design, synthesis and preliminary pharmacological evaluation of new piperidine and piperazine derivatives as cognition-enhancers” (2008)

System: Mus musculus
Test: Antiamnesic activity in sc dosed mouse after 30 mins by passive avoidance test
Format: functional
Conditions: 0.5 h, read-out: MED

| Compound | minimal effective dose |
| --- | --- |
| CCC(=O)NCC1CCCN(S(=O)(=O)c2ccc(F)cc2)C1 (stereo unspecified) | 10 mg/kg |
| CCC(=O)N1CCN(Cc2ccccc2)C(=O)C1 | 10 mg/kg |
| CC(=O)NCC1CCCN(S(=O)(=O)c2ccc(F)cc2)C1 (stereo unspecified) | 10 mg/kg |
| CCC(=O)NC1CCN(S(=O)(=O)c2ccc(F)cc2)CC1 | 0.1 mg/kg |
| CCC(=O)N1CCCC(NS(=O)(=O)c2ccc(F)cc2)C1 (stereo unspecified) | 10 mg/kg |
| CC(=O)N1CCN(C(=O)c2ccccc2)CC1 | 10 mg/kg |
| CCC(=O)NCC1CCN(C(=O)c2ccccc2)CC1 | 1 mg/kg |
| CC(=O)N1CCN(S(=O)(=O)c2ccc(F)cc2)CC1=O | 0.3 mg/kg |
| O=S(=O)(NCC1CCN(S(=O)(=O)c2ccc(F)cc2)CC1)c1ccc(F)cc1 | 1 mg/kg |
| CCC(=O)N1CCN(S(=O)(=O)c2ccc(F)cc2)CC1=O | 0.3 mg/kg |
| CCC(=O)NC1CCN(C(=O)c2ccccc2)CC1 | 0.1 mg/kg |
| CCC(=O)NC1CCCN(C(C)=O)C1 (stereo unspecified) | 1 mg/kg |
| CCC(=O)N1CCN(Cc2ccccc2)CC1 | 10 mg/kg |
| CC(=O)N1CCN(C(=O)c2ccccc2)CC1=O | 10 mg/kg |
| CC(C)S(=O)(=O)NC1CCCN(C(=O)c2ccccc2)C1 (stereo unspecified) | 1 mg/kg |
| CC(C)S(=O)(=O)N1CCCC(NS(=O)(=O)c2ccc(F)cc2)C1 (stereo unspecified) | 10 mg/kg |

| Compound | minimal effective dose |
| --- | --- |
| CCC(=O)N1CCCC(NC(=O)c2ccccc2)C1 (stereo unspecified) | 1 mg/kg |
| CCC(=O)N1CCC(CNS(=O)(=O)c2ccc(F)cc2)CC1 | 1 mg/kg |
| CC(=O)N1CCC(NS(=O)(=O)c2ccc(F)cc2)CC1 | 0.1 mg/kg |
| CC(=O)NC1CCN(S(=O)(=O)c2ccc(F)cc2)CC1 [SAPUNIFIRAM] | 0.01 mg/kg |
| CC(=O)N1CCN(S(=O)(=O)c2ccc(F)cc2)CC1 | 0.01 mg/kg |
| CCCN1CCN(S(=O)(=O)c2ccc(F)cc2)CC1 | 1 mg/kg |
| CC(=O)N1CCN(C(=O)c2ccccc2)C(=O)C1 | 10 mg/kg |
| CCC(=O)N1CCN(C(=O)c2ccccc2)CC1 [SUNIFIRAM] | 0.001 mg/kg |
| CCC(=O)N1CCN(S(=O)(=O)c2ccc(F)cc2)CC1 | 0.01 mg/kg |
| CC(=O)NC1CCCN(S(=O)(=O)c2ccc(F)cc2)C1 (stereo unspecified) | 1 mg/kg |
| CCC(=O)NC1CCCN(S(=O)(=O)c2ccc(F)cc2)C1 (stereo unspecified) | 1 mg/kg |
| CCC(=O)N1CCC(NS(=O)(=O)c2ccc(F)cc2)CC1 | 10 mg/kg |
| CC(=O)N1CCCC(NS(=O)(=O)c2ccc(F)cc2)C1 (stereo unspecified) | 1 mg/kg |
| CCC(=O)N1CCN(C(=O)c2ccccc2)CC1=O | 10 mg/kg |
| CC(C)S(=O)(=O)NC1CCCN(S(=O)(=O)c2ccc(F)cc2)C1 (stereo unspecified) | 1 mg/kg |
